Source: patent US10913744B2, “LRRK2 inhibitors and methods of making and using the same” (Dana-Farber Cancer Institute, Inc., priority 2015, dated 2021)
Like-named read-outs stand apart in the source and are kept apart here.

Biological target: MNK2 (Homo sapiens (Human), UniProt Q9HBH9)
Assay: Dundee profiling

Sequence of MNK2 (Q9HBH9 whole entry, species assumed): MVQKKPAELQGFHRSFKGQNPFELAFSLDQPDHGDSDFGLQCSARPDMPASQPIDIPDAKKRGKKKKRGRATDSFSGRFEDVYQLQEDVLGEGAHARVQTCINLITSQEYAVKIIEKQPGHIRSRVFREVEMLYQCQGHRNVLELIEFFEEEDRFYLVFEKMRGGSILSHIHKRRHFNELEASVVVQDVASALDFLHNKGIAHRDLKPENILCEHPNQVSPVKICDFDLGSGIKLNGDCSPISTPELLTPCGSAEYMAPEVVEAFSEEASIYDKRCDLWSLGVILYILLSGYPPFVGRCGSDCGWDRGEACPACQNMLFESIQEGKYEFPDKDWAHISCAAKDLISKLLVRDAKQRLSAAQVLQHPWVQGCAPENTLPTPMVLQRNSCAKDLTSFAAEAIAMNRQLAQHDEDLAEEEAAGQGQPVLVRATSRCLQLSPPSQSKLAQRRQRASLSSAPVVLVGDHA

For CNc1nc(Nc2ccc(C(=O)N3CCOCC3)cc2OC)nc2[nH]cc(Cl)c12 [Compound 18, (4-((5-chloro-4-(methylamino)-7H-pyrrolo[2,3-d]pyrimidin-2-yl)amino)-3-methoxyphenyl)(morpholino)methanone], the remaining activity at 1 µM (read-out: percent remaining enzymatic activity, I1, 1 μM) was 75% and the remaining activity at 1 µM (read-out: percent remaining enzymatic activity, I10) was 25%.
